Data from article PMC11831560, “Development of the Pyrido[2,3-d]pyrimidin-7(8H)-one Scaffold toward Potent and Selective NUAK1 Inhibitors” (ACS Medicinal Chemistry Letters, 2025).

Legend:
Assay in all cases: Kinase panel radiometric filter binding (33P-ATP)
Type in all cases: biochemical
Design in all cases: dose or concentration left out as unconfirmed
MLK1 = MLK1 (Homo sapiens, UniProt P80192)
Experimental: (§1) Table S4: AMPKA kinase activity data (ADP-Glo assay)
(§2) Compound pIC50 (Fold selectivity
(§3) Table S5. Kinase selectivity screening for 9 and 24 at 1 µM against a general kinase panel of 140 targets
(§4) in radiometric filter binding assay using 33P-γ−ATP at the MRC PPU International Centre for Kinase
(§5) Profiling, University of Dundee. pIC50 values were determined for compounds with <20% activity
(§6) Kinase activity s.d. pIC50 activity s.d. pIC50

Aurora A = Aurora A (Homo sapiens, UniProt O14965)
Experimental: as §1, §2, §3, §4, §5, §6

STK33 = STK33 (Homo sapiens, UniProt Q9BYT3)
Experimental: as §1, §2, §3, §4, §5, §6

AMPK (hum) = AMPK (hum) (Homo sapiens, UniProt Q13131)
Experimental: as §1, §2, §3, §4, §5, §6

Src = Src (Homo sapiens, UniProt P12931)
Experimental: as §1, §2, §3, §4, §5, §6

MST4 = MST4 (Homo sapiens, UniProt Q9P289)
Experimental: as §1, §2, §3, §4, §5, §6

JNK3 = JNK3 (Homo sapiens, UniProt P53779)
Experimental: as §1, §2, §3, §4, §5, §6

Aurora B = Aurora B (Homo sapiens, UniProt Q96GD4)
Sequence of Aurora B (Q96GD4 whole entry): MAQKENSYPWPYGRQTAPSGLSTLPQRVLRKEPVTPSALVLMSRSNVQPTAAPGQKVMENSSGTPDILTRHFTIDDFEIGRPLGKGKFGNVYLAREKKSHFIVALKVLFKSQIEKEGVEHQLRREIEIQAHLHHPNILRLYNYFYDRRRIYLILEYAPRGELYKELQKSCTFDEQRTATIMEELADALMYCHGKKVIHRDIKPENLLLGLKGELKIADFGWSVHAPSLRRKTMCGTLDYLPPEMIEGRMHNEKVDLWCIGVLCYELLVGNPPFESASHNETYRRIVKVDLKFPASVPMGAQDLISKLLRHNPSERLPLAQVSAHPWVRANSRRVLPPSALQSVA
Experimental: as §1, §2, §3, §4, §5, §6

CK1γ2 = CK1γ2 (Homo sapiens, UniProt P78368)
Experimental: as §1, §2, §3, §4, §5, §6

EPH-A4 = EPH-A4 (Homo sapiens, UniProt P54764)
Sequence of EPH-A4 (P54764 20-986): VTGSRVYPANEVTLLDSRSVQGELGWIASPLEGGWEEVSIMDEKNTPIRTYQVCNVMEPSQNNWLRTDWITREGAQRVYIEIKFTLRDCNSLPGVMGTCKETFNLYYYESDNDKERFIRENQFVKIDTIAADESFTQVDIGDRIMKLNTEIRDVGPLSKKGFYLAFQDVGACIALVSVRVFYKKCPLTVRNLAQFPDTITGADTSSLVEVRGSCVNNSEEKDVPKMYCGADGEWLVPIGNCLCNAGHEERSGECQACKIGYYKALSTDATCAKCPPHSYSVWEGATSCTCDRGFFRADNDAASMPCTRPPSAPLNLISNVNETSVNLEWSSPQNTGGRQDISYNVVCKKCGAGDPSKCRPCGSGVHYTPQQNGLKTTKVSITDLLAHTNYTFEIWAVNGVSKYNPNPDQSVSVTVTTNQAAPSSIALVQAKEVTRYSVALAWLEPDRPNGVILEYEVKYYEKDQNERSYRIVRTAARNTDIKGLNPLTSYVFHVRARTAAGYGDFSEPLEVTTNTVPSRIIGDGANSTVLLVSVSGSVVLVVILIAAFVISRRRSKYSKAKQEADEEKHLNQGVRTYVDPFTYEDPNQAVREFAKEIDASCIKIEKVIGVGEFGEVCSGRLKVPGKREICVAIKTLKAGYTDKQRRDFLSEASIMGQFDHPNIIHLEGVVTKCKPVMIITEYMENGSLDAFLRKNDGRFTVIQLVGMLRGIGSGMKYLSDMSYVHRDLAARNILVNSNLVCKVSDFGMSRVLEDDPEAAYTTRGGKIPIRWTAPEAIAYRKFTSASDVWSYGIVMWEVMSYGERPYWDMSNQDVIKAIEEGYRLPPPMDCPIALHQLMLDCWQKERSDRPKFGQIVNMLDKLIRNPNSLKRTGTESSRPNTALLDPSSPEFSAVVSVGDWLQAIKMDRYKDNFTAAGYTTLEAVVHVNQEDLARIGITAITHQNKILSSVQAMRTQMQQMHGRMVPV
Experimental: as §1, §2, §3, §4, §5, §6

CDK2-Cyclin A = CDK2-Cyclin A (Homo sapiens, UniProt P24941)
Experimental: as §1, §2, §3, §4, §5, §6

PKBb = PKBb (Homo sapiens, UniProt P31751)
Experimental: as §1, §2, §3, §4, §5, §6

TESK1 = TESK1 (Homo sapiens, UniProt Q15569)
Experimental: as §1, §2, §3, §4, §5, §6

GSK3b = GSK3b (Homo sapiens, UniProt P49841)
Sequence of GSK3b (P49841 whole entry): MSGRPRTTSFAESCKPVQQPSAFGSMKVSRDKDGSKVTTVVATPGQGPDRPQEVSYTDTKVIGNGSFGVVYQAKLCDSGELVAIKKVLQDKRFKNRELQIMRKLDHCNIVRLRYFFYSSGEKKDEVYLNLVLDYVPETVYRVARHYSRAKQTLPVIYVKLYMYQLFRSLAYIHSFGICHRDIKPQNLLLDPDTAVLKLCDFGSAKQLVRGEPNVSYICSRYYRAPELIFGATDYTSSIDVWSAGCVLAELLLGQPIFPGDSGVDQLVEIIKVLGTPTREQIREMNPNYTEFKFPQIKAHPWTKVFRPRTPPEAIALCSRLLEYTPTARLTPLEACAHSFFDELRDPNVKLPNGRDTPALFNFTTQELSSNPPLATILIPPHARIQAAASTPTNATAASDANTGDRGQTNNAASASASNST
Experimental: as §1, §2, §3, §4, §5, §6

MKK1 = MKK1 (Homo sapiens, UniProt Q02750)
Sequence of MKK1 (Q02750 whole entry): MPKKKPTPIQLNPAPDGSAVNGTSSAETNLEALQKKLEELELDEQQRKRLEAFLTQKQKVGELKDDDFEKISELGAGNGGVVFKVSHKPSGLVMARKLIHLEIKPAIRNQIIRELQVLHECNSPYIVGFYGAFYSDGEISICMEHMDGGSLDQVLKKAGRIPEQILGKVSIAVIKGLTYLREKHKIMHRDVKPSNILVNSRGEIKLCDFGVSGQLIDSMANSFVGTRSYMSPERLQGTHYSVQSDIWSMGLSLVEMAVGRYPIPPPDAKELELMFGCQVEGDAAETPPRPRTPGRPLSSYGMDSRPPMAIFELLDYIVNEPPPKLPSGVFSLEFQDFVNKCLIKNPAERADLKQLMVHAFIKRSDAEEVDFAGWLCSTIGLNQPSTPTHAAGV
Experimental: as §1, §2, §3, §4, §5, §6

PAK4 = PAK4 (Homo sapiens, UniProt O96013)
Experimental: as §1, §2, §3, §4, §5, §6

ASK1 = ASK1 (Homo sapiens, UniProt Q99683)
Experimental: as §1, §2, §3, §4, §5, §6

DDR2 = DDR2 (Homo sapiens, UniProt Q16832)
Experimental: as §1, §2, §3, §4, §5, §6

TTBK1 = TTBK1 (Homo sapiens, UniProt Q5TCY1)
Experimental: as §1, §2, §3, §4, §5, §6

FGF-R1 = FGF-R1 (Homo sapiens, UniProt P11362)
Experimental: as §1, §2, §3, §4, §5, §6

PIM2 = PIM2 (Homo sapiens, UniProt Q9P1W9)
Experimental: as §1, §2, §3, §4, §5, §6

S6K1 = S6K1 (Homo sapiens, UniProt P23443)
Experimental: as §1, §2, §3, §4, §5, §6

TTK = TTK (Homo sapiens, UniProt P33981)
Experimental: as §1, §2, §3, §4, §5, §6

SIK3 = SIK3 (Homo sapiens, UniProt Q9Y2K2)
Sequence of SIK3 (Q9Y2K2 whole entry): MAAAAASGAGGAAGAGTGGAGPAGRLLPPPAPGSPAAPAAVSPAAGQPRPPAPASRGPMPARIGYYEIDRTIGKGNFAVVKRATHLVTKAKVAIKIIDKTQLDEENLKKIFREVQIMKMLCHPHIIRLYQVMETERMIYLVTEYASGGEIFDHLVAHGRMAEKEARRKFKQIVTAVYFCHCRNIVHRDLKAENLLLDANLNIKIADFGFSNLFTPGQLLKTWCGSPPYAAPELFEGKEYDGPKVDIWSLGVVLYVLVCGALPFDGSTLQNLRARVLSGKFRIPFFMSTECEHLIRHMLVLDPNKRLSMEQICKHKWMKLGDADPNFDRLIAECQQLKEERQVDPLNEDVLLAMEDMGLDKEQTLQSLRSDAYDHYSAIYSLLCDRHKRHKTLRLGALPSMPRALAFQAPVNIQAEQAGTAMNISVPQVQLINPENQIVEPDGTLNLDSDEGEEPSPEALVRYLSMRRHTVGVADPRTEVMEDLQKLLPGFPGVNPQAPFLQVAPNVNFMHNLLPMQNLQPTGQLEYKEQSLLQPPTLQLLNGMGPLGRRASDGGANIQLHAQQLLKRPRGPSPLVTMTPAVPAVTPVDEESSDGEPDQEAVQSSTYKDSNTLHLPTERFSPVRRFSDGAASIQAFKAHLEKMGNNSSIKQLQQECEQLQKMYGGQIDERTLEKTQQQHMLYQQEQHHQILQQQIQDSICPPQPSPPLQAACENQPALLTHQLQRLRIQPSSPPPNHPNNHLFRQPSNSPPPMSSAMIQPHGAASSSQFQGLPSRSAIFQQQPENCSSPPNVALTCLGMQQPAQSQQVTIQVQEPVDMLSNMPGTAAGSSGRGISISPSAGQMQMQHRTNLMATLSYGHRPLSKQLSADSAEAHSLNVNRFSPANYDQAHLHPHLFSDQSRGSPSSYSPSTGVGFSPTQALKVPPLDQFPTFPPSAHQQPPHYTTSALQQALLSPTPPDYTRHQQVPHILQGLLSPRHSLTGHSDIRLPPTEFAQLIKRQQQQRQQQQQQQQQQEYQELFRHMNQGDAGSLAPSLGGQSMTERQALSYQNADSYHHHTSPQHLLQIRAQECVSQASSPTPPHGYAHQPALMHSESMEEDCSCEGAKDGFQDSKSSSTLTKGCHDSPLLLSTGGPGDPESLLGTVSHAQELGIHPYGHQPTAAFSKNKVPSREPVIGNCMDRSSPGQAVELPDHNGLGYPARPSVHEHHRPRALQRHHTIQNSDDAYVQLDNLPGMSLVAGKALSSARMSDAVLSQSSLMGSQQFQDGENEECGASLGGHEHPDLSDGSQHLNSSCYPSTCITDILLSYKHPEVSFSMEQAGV
Experimental: as §1, §2, §3, §4, §5, §6

MARK3 = molecular target: T1, MARK3 (Homo sapiens, UniProt P27448)
T1 construct: purchased MRC PPU
T1 sequence (P27448 whole entry): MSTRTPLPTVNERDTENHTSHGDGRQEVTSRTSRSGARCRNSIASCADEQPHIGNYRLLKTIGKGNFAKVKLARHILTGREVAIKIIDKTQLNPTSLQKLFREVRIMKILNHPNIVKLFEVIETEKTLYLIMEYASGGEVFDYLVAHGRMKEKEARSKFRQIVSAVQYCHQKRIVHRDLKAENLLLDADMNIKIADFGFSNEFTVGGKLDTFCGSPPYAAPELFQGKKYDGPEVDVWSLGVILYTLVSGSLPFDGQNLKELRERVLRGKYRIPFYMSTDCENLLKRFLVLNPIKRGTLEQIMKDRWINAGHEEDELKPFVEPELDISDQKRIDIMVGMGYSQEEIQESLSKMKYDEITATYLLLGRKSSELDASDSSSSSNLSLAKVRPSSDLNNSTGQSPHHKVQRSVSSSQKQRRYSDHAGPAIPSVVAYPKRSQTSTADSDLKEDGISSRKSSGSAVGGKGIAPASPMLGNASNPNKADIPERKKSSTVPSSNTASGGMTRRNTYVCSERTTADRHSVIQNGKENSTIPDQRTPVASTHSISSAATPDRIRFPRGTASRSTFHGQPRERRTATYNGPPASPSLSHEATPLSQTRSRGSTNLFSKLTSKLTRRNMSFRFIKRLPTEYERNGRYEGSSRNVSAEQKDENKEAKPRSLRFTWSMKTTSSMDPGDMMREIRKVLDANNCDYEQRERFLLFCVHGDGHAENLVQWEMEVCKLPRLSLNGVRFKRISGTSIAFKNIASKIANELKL
Experimental: as §1, §2, §3, §4, §5, §6

PAK6 = PAK6 (Homo sapiens, UniProt Q9NQU5)
Experimental: as §1, §2, §3, §4, §5, §6

p38b MAPK = p38b MAPK (Homo sapiens, UniProt Q15759)
Experimental: as §1, §2, §3, §4, §5, §6

ERK8 = ERK8 (Homo sapiens, UniProt Q8TD08)
Experimental: as §1, §2, §3, §4, §5, §6

PIM3 = PIM3 (Homo sapiens, UniProt Q86V86)
Experimental: as §1, §2, §3, §4, §5, §6

PRK2 = PRK2 (Homo sapiens, UniProt Q16513)
Experimental: as §1, §2, §3, §4, §5, §6

ERK5 = ERK5 (Homo sapiens, UniProt Q13164)
Sequence of ERK5 (Q13164 whole entry): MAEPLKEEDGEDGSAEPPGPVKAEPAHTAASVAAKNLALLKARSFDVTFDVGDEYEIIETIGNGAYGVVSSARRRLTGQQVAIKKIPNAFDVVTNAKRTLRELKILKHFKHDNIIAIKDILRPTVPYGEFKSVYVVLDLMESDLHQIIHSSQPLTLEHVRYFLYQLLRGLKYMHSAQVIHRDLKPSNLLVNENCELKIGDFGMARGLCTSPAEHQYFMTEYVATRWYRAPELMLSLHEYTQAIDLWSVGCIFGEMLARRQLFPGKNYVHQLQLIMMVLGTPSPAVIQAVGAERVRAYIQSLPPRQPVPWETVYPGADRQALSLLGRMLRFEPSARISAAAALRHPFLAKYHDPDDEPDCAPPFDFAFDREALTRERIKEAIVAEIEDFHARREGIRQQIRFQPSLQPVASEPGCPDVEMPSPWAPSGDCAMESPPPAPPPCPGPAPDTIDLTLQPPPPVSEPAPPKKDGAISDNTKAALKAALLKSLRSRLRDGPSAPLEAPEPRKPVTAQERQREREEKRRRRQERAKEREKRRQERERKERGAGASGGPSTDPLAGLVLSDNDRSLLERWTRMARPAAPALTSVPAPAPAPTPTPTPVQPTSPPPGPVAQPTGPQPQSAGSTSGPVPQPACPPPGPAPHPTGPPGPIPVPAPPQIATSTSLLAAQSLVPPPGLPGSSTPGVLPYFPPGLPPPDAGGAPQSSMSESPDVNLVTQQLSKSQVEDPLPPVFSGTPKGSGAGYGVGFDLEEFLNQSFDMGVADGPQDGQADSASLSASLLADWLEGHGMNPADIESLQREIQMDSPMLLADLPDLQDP
Experimental: as §1, §2, §3, §4, §5, §6

EPH-B4 = EPH-B4 (Homo sapiens, UniProt P54760)
Experimental: as §1, §2, §3, §4, §5, §6

SYK = SYK (Homo sapiens, UniProt P43405)
Experimental: as §1, §2, §3, §4, §5, §6

CHK1 = CHK1 (Homo sapiens, UniProt O14757)
Experimental: as §1, §2, §3, §4, §5, §6

MNK1 = MNK1 (Homo sapiens, UniProt Q9BUB5)
Experimental: as §1, §2, §3, §4, §5, §6

| SMILES | % activity remaining (MLK1) [%] | % activity remaining (Aurora A) [%] | % activity remaining (STK33) [%] | % activity remaining (AMPK (hum)) [%] | % activity remaining (Src) [%] | % activity remaining (MST4) [%] | % activity remaining (JNK3) [%] | % activity remaining (Aurora B) [%] | % activity remaining (CK1γ2) [%] | % activity remaining (EPH-A4) [%] | % activity remaining (CDK2-Cyclin A) [%] | % activity remaining (PKBb) [%] | % activity remaining (TESK1) [%] | % activity remaining (GSK3b) [%] | % activity remaining (MKK1) [%] | % activity remaining (PAK4) [%] | % activity remaining (ASK1) [%] | % activity remaining (DDR2) [%] | % activity remaining (TTBK1) [%] | % activity remaining (FGF-R1) [%] | also measured |
| --- | --- | --- | --- | --- | --- | --- | --- | --- | --- | --- | --- | --- | --- | --- | --- | --- | --- | --- | --- | --- | --- |
| Cc1cc(=O)n(C2CCCC2)c2nc(Nc3ccc(N4CC5CC(C4)N5C)cc3)ncc12 [Compound 9] | 21 | 52 | 101 | 19 | 53 | 61 | 30 | 61 | 34 | 90 | 59 | 99 | 96 | 101 | 108 | 50 | 97 | 39 | 92 | 56 | % activity remaining (PIM2): 99%; % activity remaining (S6K1): 85%; % activity remaining (TTK): 54%; % activity remaining (SIK3): 85%; % activity remaining (MARK3): 35%; % activity remaining (PAK6): 78%; % activity remaining (p38b MAPK): 91%; % activity remaining (ERK8): 47%; % activity remaining (PIM3): 80%; % activity remaining (PRK2): 75%; % activity remaining (ERK5): 80%; % activity remaining (EPH-B4): 61%; % activity remaining (SYK): 49%; % activity remaining (CHK1): 57%; % activity remaining (MNK1): 96% |
| CN1C2CC1CN(c1ccc(Nc3ncc4ccn(CC5CCOCC5)c4n3)cc1)C2 [Compound 24] | 33 | 54 | 93 | 81 | 84 | 92 | 107 | 64 | 107 | 91 | 79 | 93 | 94 | 69 | 71 | 89 | 99 | 82 | 103 | 81 | % activity remaining (PIM2): 111%; % activity remaining (S6K1): 78%; % activity remaining (TTK): 99%; % activity remaining (SIK3): 74%; % activity remaining (MARK3): 104%; % activity remaining (PAK6): 118%; % activity remaining (p38b MAPK): 108%; % activity remaining (ERK8): 76%; % activity remaining (PIM3): 56%; % activity remaining (PRK2): 71%; % activity remaining (ERK5): 102%; % activity remaining (EPH-B4): 86%; % activity remaining (SYK): 81%; % activity remaining (CHK1): 75%; % activity remaining (MNK1): 72% |
